In brackets after ≈: the same amount, converted by molar mass. Read-outs that look alike come from different tables or passages of the source.
Experiments:
Assay in all cases: Minimum Inhibitory Concentration (MIC), agar dilution, standard strains
S. aureus 77 = assay type: cell-based, Staphylococcus aureus; conditions: for MIC: read-out: Minimum Inhibitory Concentration (MIC), S. aureus 77
Description: (§1) Minimum Inhibitory Concentration (MIC)
(§2) The effectiveness of the compound according to the present invention was determined by obtaining Minimum Inhibitory Concentration (MIC) of the compounds prepared by the above Examples (I-1 to I-33) and vancomycin, which is the known compound having a potent activity against gram-positive strains, as the control drug against the standard strains. Specifically, Minimum Inhibitory Concentration was obtained by diluting the test material with a double dilution method, dispersing them in Mueller-Hinton agar medium, inoculating each of the test strain having 10^7 cfu (colny forming unit) in an amount of 2:1 to the medium and then incubating them at 37° C. for 20 hours.

S. aureus K311 = assay type: cell-based, Staphylococcus aureus; conditions: Table 2; Mueller-Hinton agar, 37° C., 20 hours
Description: as §1, §2

S. epidermidis R005 = assay type: cell-based; conditions: for MIC: Staphylococcus epidermidis, read-out: Minimum Inhibitory Concentration (MIC), S. epidermidis R005
Description: as §1, §2

E. faecalis EFS004 = assay type: cell-based; conditions: Table 2; Mueller-Hinton agar, 37° C., 20 hours
Description: as §1, §2

[1] = test system: Staphylococcus aureus giorgio; assay type: cell-based; conditions: for Minimum Inhibitory Concentration (MIC), S. aureus giorgio: Table 2, Mueller-Hinton agar, 37° C., 20 hours
Description: as §1, §2

S. aureus 241 = assay type: cell-based, Staphylococcus aureus; conditions: Staphylococcus aureus, 241, 20 h, read-out: Minimum Inhibitory Concentration (MIC), S. aureus 241
Description: as §1, §2

E. faecalis L239 = assay type: cell-based; conditions: Enterococcus faecalis, L239, 20 h, read-out: Minimum Inhibitory Concentration (MIC), E. faecalis L239
Description: as §1, §2

[2] = Staphylococcus aureus, 77, Table 2, Mueller-Hinton agar, 37° C., 20 hours
[3] = R005, Table 2, Mueller-Hinton agar, 37° C., 20 hours
[4] = Table 2, Mueller-Hinton agar, 37° C., 20 hours

SMILES	MIC (S. aureus 77; [2])	Minimum Inhibitory Concentration (MIC), S. aureus K311 (S. aureus K311)	MIC (S. epidermidis R005; [3])	Minimum Inhibitory Concentration (MIC), E. faecalis EFS004 (E. faecalis EFS004)	Minimum Inhibitory Concentration (MIC), S. aureus giorgio [1]	MIC (S. aureus 77; Staphylococcus aureus, 77, 20 h)	Minimum Inhibitory Concentration (MIC), S. aureus 77 (S. aureus 77; [4])	MIC (S. aureus 241)	MIC (S. epidermidis R005; R005, 20 h)	Minimum Inhibitory Concentration (MIC), S. epidermidis R005 (S. epidermidis R005; [4])	MIC (E. faecalis L239)	MIC ([1]; Staphylococcus aureus, 20 h, read-out: Minimum Inhibitory Concentration (MIC), Staphylococcus aureus giorgio)
O=C(CSc1cc(Cl)nc(Cl)c1)N[C@@H]1C(=O)N2C(C(=O)O)=C(SCSc3ncnc4[nH]ncc34)CS[C@H]12 [Example I-27, (6R,7R)-7-({2-[(2,6-dichloro-4-pyridinyl)sulfanyl]acetyl}amino)-8-oxo-3-{[(1H-pyrazolo[3,4-d]pyrimidin-4-yl-sulfanyl)methyl]sulfanyl}-5-thia-1-azabicyclo[4.2. 0]oct-2-ene-2-carboxylic acid]	0.25 µg/mL (≈ 0.405 µM)	0.5 :g/ml	0.25 µg/mL (≈ 0.405 µM)	0.5 :g/ml	0.13 :g/ml							
CN[C@H](CC(C)C)C(=O)N[C@H]1C(=O)N[C@@H](CC(N)=O)C(=O)N[C@H]2C(=O)N[C@H]3C(=O)N[C@H](C(=O)N[C@H](C(=O)O)c4cc(O)cc(O)c4-c4cc3ccc4O)[C@H](O)c3ccc(c(Cl)c3)Oc3cc2cc(c3O[C@@H]2O[C@H](CO)[C@@H](O)[C@H](O)[C@H]2O[C@H]2C[C@](C)(N)[C@H](O)[C@H](C)O2)Oc2ccc(cc2Cl)[C@H]1O [Vancomycin, vancomycin, reference compound]		2 :g/ml		2 :g/ml	1 :g/ml	1 µg/mL (≈ 0.69 µM)	1 :g/ml	2 µg/mL (≈ 1.38 µM)	1 µg/mL (≈ 0.69 µM)	1 :g/ml	2 µg/mL (≈ 1.38 µM)	1 µg/mL (≈ 0.69 µM)
O=C(CSc1cc(Cl)nc(Cl)c1)N[C@@H]1C(=O)N2C(C(=O)O)=C(SCSc3nc(O)cc(NCCO)n3)CS[C@H]12 [Example I-32, (6R,7R)-7-({2-[(2,6-dichloro-4-pyridinyl)sulfanyl]acetyl}amino)-3-{[({4-hy-droxy-6-[(2-hydroxyethyl)amino]-2-pyrimidinyl}sulfanyl)methyl]sulfanyl}-8-oxo-5-thia-1-azabicyclo[4. 2.0]oct-2-ene-2-carboxylic acid]		1 :g/ml		1 :g/ml	0.13 :g/ml		0.1 :g/ml			1 :g/ml		
Nc1nc(O)cc(SCSC2=C(C(=O)O)N3C(=O)[C@@H](NC(=O)CSc4cc(Cl)nc(Cl)c4)[C@H]3SC2)n1 [Example I-28, (6R,7R)-3-({[(2-amino-6-hydroxy-4-pyrimidinyl)sulfanyl]methyl}sulfanyl)-7-({2-[(2,6-dic hloro-4-pyridinyl)sulfanyl]acetyl}amino)-8-oxo-5-thia-1-azabicyclo[4.2.0]-oct-2-ene-2-car boxylic acid]	0.25 µg/mL (≈ 0.411 µM)	0.5 :g/ml	0.25 µg/mL (≈ 0.411 µM)	1 :g/ml	0.031 :g/ml							

Source: patent publication US20030166922A1, “Novel cephalosporin compounds and process for preparing the same” (priority 2000, published 2003)
